Laboratory results published in patent US20230257758A1, “PLANT METABOLITE-MEDIATED INDUCTION OF BIOFILM FORMATION IN SOIL BACTERIA TO INCREASE BIOLOGICAL NITROGEN FIXATION AND PLANT NITROGEN ASSIMILATION” (The Regents of the University of California, priority 2020, published 2023).

Experiments:
[1] = tested on: Gluconacetobacter diazotrophicus; experiment: Microtiter-plate biofilm formation assay (crystal violet staining) with rice root exudates; type: cell-based; conditions: for Biofilm production (natural flavonoids, FIG. 7): exposed for 3 days to Oryza sativa root exudates supplemented with […] of the indicated compounds; for Biofilm formation, comparison of flavones (FIG. 11): 3 days with Oryza sativa root exudates supplemented with indicated concentrations; for Biofilm formation in chemical screening (normalized to DMSO control): wild-type rice (Kitaake) root exudate 198 μL + 2 μL of 10 mM compound, 3 days, crystal violet staining
Description: FIG. 3. […] Biofilm formation of Glucanoacetobacter diazotrophicus was assessed incubated with wild-type rice (Oryza sativa Kitaake) root exudates supplemented with 2 μl of each of 500 flavonoid and derivated compounds of a chemical library (FL-500, TimTec) and 700 compounds (natural and synthetic) (NPDepo library). Chemical screening was performed in a 96-well plate with each well containing: 198 μL of the Kitaake exudate and 2 μL of the 10 mM compound from the chemical libraries. An equal volume (2 μL) of DMSO was added to each well and served as the negative control. Gluconacetobacter diazotrophicus was added to the final OD600=0.01 to each well and incubated in a shaker at 150 rpm, 28° C. for 3 days before biofilm quantification by crystal violet staining. The value of each well in biofilm quantification was normalized to that of the DMSO control in each plate (DMSO=1). The heatmap was generated by the mean value of 3 biological replicates for each compound.
FIG. 7. Effect of natural flavonoids on biofilm formation in Glucanoacetobacter diazotrophicus. Induction of biofilm production in Gluconacetobacter diazotrophicus exposed to Oryza sativa root exudates supplemented with […] of the indicated compounds. Controls are exudates without compound and exudates with DMSO.
FIG. 11. Effects of Naringenin, Apigenin, Apigenin-7-Glucoside, and Luteolin on biofilm formation on Gluconacetobacter diazotrophicus. Values are the Mean±SD (n=6).
Any of a number of assays can be used to assess plants generated using the present methods, as well as to assess candidate plant molecules (e.g., other flavones) for their ability to upregulate biofilm production and assimilation of N2-fixing bacteria. For example, to confirm that the plants are exuding increased levels of the one or more flavones, root exudates from the plants can be isolated and the quantities and identities of the flavones determined, e.g., using mass spectrometry. In addition, the exudates (or other candidate biofilm-inducing molecules) can be incubated with N2-fixing bacteria, e.g., Glucanoacetobacter diazotrophicus, and the biofilm produced by the bacteria assessed. The biofilm can be quantified, e.g., by incubating the exudate (or candidate molecule or molecules) and bacteria in the wells of a microtiter plate, removing the cultures from the plate, washing the wells, adding a solution of crystal violet, rinsing and drying the plate, and then adding ethanol and measuring absorbance at, e.g., 540 nm. See, e.g. Example 1 and www.jove.com/video/2437/microtiter-dish-biofilm-formation-assay, the entire disclosure of which is herein incorporated by reference.
To assess the effect(s) of different chemicals on biofilm formation in N2-fixing bacteria, we used a published protocol (www.jove.com/video/2437/microtiter-dish-biofilm-formation-assay). Basically, bacteria were grown in a 96-well plate in a rich-nutrient medium at 28° C. The compound to be tested was added and the culture was grown overnight. Plant exudates and 2 μl of the compound were added to the well and the bacteria grown for 3 days under shaking (200 rpm). After 3 days, the planktonic bacterial cultures were discarded and the wells were thoroughly washed with water. A solution of 1% of crystal violet was added to each well of the plate and the plate shaken for 10-15 min at 200 rpm. The plates are rinsed 3-4 times with water (by submerging the plants in a tub of water), shaken vigorously and blotted on a stack of paper towels (to eliminate excess of cells and dye), the microliter plate was placed upside down and air dried. To quantify the amount of biofilm that adhered to the well walls, 200 μl of ethanol were added to each well, the plates shacked at 200 rpm, at 28° C. for 10-15 min. The absorbance of the solution was measured at 540 nm, using ethanol as a blank (FIG. 1). […]

Glucanoacetobacter = experiment: Biofilm formation in suspension of double-labelled (mCherry, gumDpro::GFP) Glucanoacetobacter; type: cell-based, Glucanoacetobacter diazotrophicus; conditions: addition of compound to a suspension of Glucanoacetobacter (FIGS. 5A, 5B)
Excerpt: (§1) FIGS. 5A-5C. Effects of the addition of luteolin or apigenin to biofilm formation in Glucanoacetobacter diazotrophicus. FIG. 5A: Effects of the addition of luteolin to biofilm formation in a Glucanoacetobacter diazotrophicus suspension.
The activity of the exudate or of candidate molecules can also be assessed in vivo, e.g., by using transgenic N2-fixing bacteria such as Glucanoacetobacter diazotrophicus that constitutively express a label such as mCherry. The bacteria can also express labeled components of biofilms, e.g., in bacteria transformed with gumDpro::GFP. The double labeling in such bacteria allows the visualization of the bacteria and, independently, the development of biofilm in the presence or absence of the exudate or candidate molecule.
Our results indicated clustering among common moieties, particularly among heterooctacyclic compounds (e.g., Staurosporine) and […] (e.g., luteolin, apigenin) and anthraquinones (e.g. 2H03 and 4G03—Papaverine). (FIG. 4). […] Therefore we assessed the effects of luteolin and apigenin in vivo. First we assessed the formation of chemical-induced formation of biofilm in bacterial cultures. For this, we generated transgenic Glucanoacetobacter constitutively expressing mCherry (transformed with pSEVAGeng-Luc-mCherry) in order to visualize mCherry fluorescent bacteria. Then we transformed the mCherry expressing bacteria with gumDpro::GFP. GumD encodes for components of the bacterial Exopolysacharides (EPS)] in order to visualize GFP-labelled biofilms. Thus the double labelling allowed as to follow the development of biofilm while visualizing the bacteria.

[2] = tested on: Glucanoacetobacter diazotrophicus; experiment: Acetylene reduction assay (ARA) for bacterial N2 fixation; type: cell-based; conditions: Kitaake rice root exudates and 100 μM, 3 days at 28° C., then acetylene 4 days
Description: as §1
FIGS. 12A-12C. Effects of flavones (Naringenin, Apigenin, Apigenin-7-Glucoside) on bacterium N2-fixation. FIG. 12A: Activity was assessed by measuring the conversion of acetylene to ethylene by Gas Chromatography. FIG. 12B: Assimilation of Nitrogen by Kitaake rice plants, incubated with Glucanoacetobacter in the absence (DMSO) or presence of Apigenin. Nitrogen assimilation was assessed by feeding ^15N2 and measuring assimilated inorganic ^15N in leaf tissues after 2 weeks, using Mass Spectroscopy. […]
The N2-fixing activity of the bacteria can be assessed, e.g., using an acetylene reduction assay (ARA), in which bacteria are cultured in the presence of acetylene gas, and the conversion of acetylene to ethylene measured by, e.g., gas chromatography.
To assess the effects of the flavones on bacteria N2 fixation, we used the acetylene reduction assay (ARA), where gas acetylene is added, and the resulting ethylene is measured by Gas Chromatography. […] Ten % of the air in the tube was replaced by acetylene, the cells incubated for 4 days and ethylene was measured by gas chromatography (FIG. 12A). […]

[3] = tested on: Kitaake rice roots incubated with Glucanoacetobacter; experiment: Microscopy of adherence of fluorescent bacteria to rice roots; type: in vivo, Oryza sativa Kitaake; conditions: versus DMSO
Description: (§2) FIGS. 12A-12C. Effects of flavones (Naringenin, Apigenin, Apigenin-7-Glucoside) on bacterium N2-fixation. FIG. 12A: Activity was assessed by measuring the conversion of acetylene to ethylene by Gas Chromatography. FIG. 12B: Assimilation of Nitrogen by Kitaake rice plants, incubated with Glucanoacetobacter in the absence (DMSO) or presence of Apigenin. Nitrogen assimilation was assessed by feeding ^15N2 and measuring assimilated inorganic ^15N in leaf tissues after 2 weeks, using Mass Spectroscopy. FIG. 12C: Kitaake rice roots incubated with Glucanoacetobacter in the absence (DMSO) or presence of Apigenin.
(§3) The genetically modified plants themselves can also be assessed in any of a number of ways. For example, plants can be grown in the presence of fluorescently labeled N2-fixing bacteria, and the adherence of the bacteria to the plant root hairs, either attached to the root surface or present inside the plant tissues, can be determined. The plants can also be assessed by determining the number of tillers and/or the seed yield. In some embodiments, the assimilation of N2 fixed by bacteria in the soil is assessed by, e.g., growing the plants in the presence of ^15N2 gas, and then measuring the level of ^15N assimilated in the plant leaves, e.g., using Mass spectroscopy.
No bacteria was seen on the control treatments. […]

[4] = tested on: Kitaake rice plants, incubated with Glucanoacetobacter; experiment: Assimilation of 15N2-derived nitrogen by rice plants incubated with bacteria; type: in vivo, Oryza sativa Kitaake; conditions: rice seedlings in soil with bacteria, 15N2 gas added; versus DMSO control
Description: as §2
as §3, with “spectroscopy. […]” for “spectroscopy.”

[5] = tested on: Burkholderia vietnamensis; experiment: Luteolin-induced biofilm production in N2-fixing bacteria; type: cell-based
Description: (§4) FIG. 8. Induction of biofilm production in facultative N2-fixing bacteria.
(§5) FIGS. 9A-9C. Effect of luteolin on biofilm production in Azoarcus sp. CIB (FIG. 9A), Azoarcus communis (FIG. 9B), and Burkholderia vietnamensis (FIG. 9C).
(§6) The effects of luteolin on the induction of biofilm production was tested in a number of N2-fixing bacteria (FIG. 8). While Burkholderia vietnamensis and Azoarcus sp. […] Also the response of the bacteria to luteolin was not uniform; Azoarcus sp.

Azoarcus communis = experiment: as above; type: cell-based
Description: as §4, §5, §6

Azoarcus sp. CIB = experiment: as above; type: cell-based
Description: as §4, §5, §6

Azospirillum sp. 8510 = experiment: as above; type: cell-based
Description: as §4, §6

[6] = tested on: Herbaspirillum seropedicae; experiment: as above; type: cell-based
Description: as §4, §6

With `O=c1c(O)c(-c2cc(O)c(O)c(O)c2)oc2cc(O)cc(O)c12` [Myricetin] the “Biofilm production (natural flavonoids, FIG. 7)” value [1] was “Only luteolin induced a significant increase”.

For `O=c1c(O)c(-c2ccc(O)c(O)c2)oc2cc(O)cc(O)c12` [Quercetin], the “Biofilm production (natural flavonoids, FIG. 7)” value [1] was “Only luteolin induced a significant increase”.

For `O=c1cc(-c2ccc(O)cc2)oc2cc(O[C@@H]3O[C@H](CO)[C@@H](O)[C@H](O)[C@H]3O)cc(O)c12` [apigenin-7-O-glucoside], the “Biofilm formation, comparison of flavones (FIG. 11)” value (“Biofilm formation, comparison” for short) [1] was “strongest biofilm induction”, the “Induction of biofilm formation in bacterial suspension” value (from here on “Induction of biofilm formation”) (Glucanoacetobacter) was “showed the induction of biofilm formation” and the “Nitrogen fixation (conversion of acetylene to ethylene, gas chromatography)” value [2] was “promote nitrogen fixation”.

For `O=c1cc(-c2ccc(O)cc2)oc2cc(O)cc(O)c12` [apigenin], the “Biofilm formation, comparison” value [1] was “strongest biofilm induction”, the “Biofilm formation, comparison” value ([1]; listed as Apigenin) was “induced a larger biofilm production than Luteolin” and the “Biofilm formation in chemical screening (normalized to DMSO control)” value [1] was “biofilm inducers”. The “Induction of biofilm formation” value (Glucanoacetobacter) was “showed the induction of biofilm formation”, the “Adherence of bacteria to the root surface and inside the root tissue” value [3] was “Adherence of bacteria to the root surface and inside the root tissue can be seen” and the “Nitrogen fixation (conversion of acetylene to ethylene, gas chromatography)” value [2] was “promote nitrogen fixation”. The “15N assimilated in the leaves” value [4] was “significant increase in ^15N into Nitrogen compounds”.

With `O=C1C[C@@H](c2ccc(O)c(O)c2)Oc2cc(O)cc(O)c21` [Eriodictyol] the “Biofilm production (natural flavonoids, FIG. 7)” value [1] was “Only luteolin induced a significant increase”.

For `O=c1cc(-c2ccc(O)c(O)c2)oc2cc(O)cc(O)c12` [luteolin], the Luteolin-induced biofilm synthesis [5] was “displayed a luteolin-induced biofilm synthesis”, the Luteolin-induced biofilm production (Azoarcus communis) was “did not show an enhanced biofilm production” and the Luteolin-induced biofilm synthesis (Azoarcus sp. CIB; Azoarcus sp. CIB) was “displayed a luteolin-induced biofilm synthesis”. The “Response to luteolin relative to Burkholderia vietnamensis” value (Azoarcus sp. CIB; Azoarcus sp. CIB versus Burkholderia vietnamensis) was “lesser response to luteolin than Burkholderia vietnamensis”, the “Biofilm production (natural flavonoids, FIG. 7)” value [1] was “induced a significant increase in biofilm production” and the “Biofilm formation in chemical screening (normalized to DMSO control)” value [1] was “biofilm inducers”. For the same molecule, the “Induction of biofilm formation” value (Glucanoacetobacter) was “induction of biofilm formation by increasing amounts of luteolin”, the Luteolin-induced biofilm production (Azospirillum sp. 8510) was “did not show an enhanced biofilm production” and the Luteolin-induced biofilm production [6] was “did not show an enhanced biofilm production”.

In the case of `O=C1C[C@@H](c2ccc(O)cc2)Oc2cc(O)cc(O)c21` [Naringenin], the “Biofilm production (natural flavonoids, FIG. 7)” value [1] is reported as “Only luteolin induced a significant increase”.
